PubChem BioAssay AID1919017 (Molecular Pharmacology Branch, DTP, NCI, 2023)

Test system: SW1271 complex spheroids with HUVEC/MSC, growth, % test/control
Assay: Anticancer human tumor SW1271 cell line growth inhibition [AhR];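 also: spheroids exposed to agents for 7 days before readout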
Conditions: for IC50: curve of first compound; for viability, T/C: stronger effect = lower value
Summary of the method: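 Spheroids combined tumor cells with HUVEC endothelial cells and human MSCs as stroma. AhR antagonists were paired with standard or investigational drugs, each dosed in half-log steps down from near clinical Cmax, or from 10 microM where Cmax was unknown.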

[1] = second compound 0.1 µM, first compound 0.0316 µM
[2] = second compound 0.1 µM, first compound 0.1 µM
[3] = second compound 0.1 µM, first compound 0.316 µM
[4] = second compound 0.1 µM, first compound 1 µM
[5] = second compound 0.1 µM, first compound 3.16 µM
[6] = second compound 0.1 µM, first compound 10 µM
[7] = second compound 0.316 µM, first compound 0.0316 µM
[8] = second compound 0.316 µM, first compound 0.1 µM
[9] = second compound 0.316 µM, first compound 0.316 µM
[10] = second compound 0.316 µM, first compound 1 µM
[11] = second compound 0.316 µM, first compound 3.16 µM
[12] = second compound 0.316 µM, first compound 10 µM
[13] = second compound 1 µM, first compound 0.0316 µM
[14] = second compound 1 µM, first compound 0.1 µM
[15] = second compound 1 µM, first compound 0.316 µM
[16] = second compound 1 µM, first compound 1 µM
[17] = second compound 1 µM, first compound 3.16 µM
[18] = second compound 1 µM, first compound 10 µM
[19] = second compound 3.16 µM, first compound 0.0316 µM
[20] = second compound 3.16 µM, first compound 0.1 µM
[21] = second compound 3.16 µM, first compound 0.316 µM
[22] = second compound 3.16 µM, first compound 1 µM
[23] = second compound 3.16 µM, first compound 3.16 µM
[24] = second compound 3.16 µM, first compound 10 µM
[25] = second compound 10 µM, first compound 0.0316 µM
[26] = second compound 10 µM, first compound 0.1 µM
[27] = second compound 10 µM, first compound 0.316 µM
[28] = second compound 10 µM, first compound 1 µM
[29] = second compound 10 µM, first compound 3.16 µM
[30] = second compound 10 µM, first compound 10 µM
[31] = second compound 0.1 µM, first compound 0.00316 µM
[32] = second compound 0.1 µM, first compound 0.01 µM
[33] = second compound 0.316 µM, first compound 0.00316 µM
[34] = second compound 0.316 µM, first compound 0.01 µM
[35] = second compound 1 µM, first compound 0.00316 µM
[36] = second compound 1 µM, first compound 0.01 µM
[37] = second compound 3.16 µM, first compound 0.00316 µM
[38] = second compound 3.16 µM, first compound 0.01 µM
[39] = second compound 10 µM, first compound 0.00316 µM
[40] = second compound 10 µM, first compound 0.01 µM

SMILES	IC50 (second compound 0.1 µM) [µM]	IC50 (second compound 0.316 µM) [µM]	IC50 (second compound 1 µM) [µM]	IC50 (second compound 3.16 µM) [µM]	IC50 (second compound 10 µM) [µM]	viability, T/C [1] [%]	viability, T/C [2] [%]	viability, T/C [3] [%]	viability, T/C [4] [%]	viability, T/C [7] [%]	viability, T/C [8] [%]	viability, T/C [9] [%]	viability, T/C [10] [%]	viability, T/C [13] [%]	viability, T/C [14] [%]	viability, T/C [15] [%]	viability, T/C [19] [%]	viability, T/C [20] [%]	viability, T/C [25] [%]	viability, T/C [26] [%]	further results
CC(C)c1c(-c2ccccc2)nc2c(C#N)c[nH]n2c1=O + CC(CO)NC(=O)c1cc(-c2ccc(Cl)cc2)nn(-c2cnn(C)c2)c1=O	> 10	> 10	> 10	> 10	> 10	88.4	101	106	90.9	88.7	85.3	91.4	98.1	78.7	89.9	86.4	95.7	97.8	71.8	80.8	viability, T/C [5]: 95.7%; viability, T/C [6]: 121%; viability, T/C [11]: 93.8%; viability, T/C [12]: 108%; viability, T/C [16]: 78.7%; viability, T/C [17]: 107%; viability, T/C [18]: 94.8%; viability, T/C [21]: 80.1%; viability, T/C [22]: 78%; viability, T/C [23]: 82.8%; viability, T/C [24]: 76.8%; viability, T/C [27]: 67.8%; viability, T/C [28]: 71.3%; viability, T/C [29]: 62.9%; viability, T/C [30]: 77.8%
COc1ccc([C@@H](O)c2cc(-c3ncnc4cc(N5CCOCC5)ccc34)c(F)cc2Cl)nn1 + CC(CO)NC(=O)c1cc(-c2ccc(Cl)cc2)nn(-c2cnn(C)c2)c1=O	2.69	1.9	1.41	1.48	0.931	83.9	96.4	90.9	66.5	101	91.4	77.3	58.6	103	108	78.6	92.2	80.4	84	76.9	viability, T/C [5]: 49.6%; viability, T/C [6]: 28%; viability, T/C [11]: 43.1%; viability, T/C [12]: 33.2%; viability, T/C [16]: 55.8%; viability, T/C [17]: 40.6%; viability, T/C [18]: 29.6%; viability, T/C [21]: 68.3%; viability, T/C [22]: 56.3%; viability, T/C [23]: 39.2%; viability, T/C [24]: 36.5%; viability, T/C [27]: 59.8%; viability, T/C [28]: 50.3%; viability, T/C [29]: 38%; viability, T/C [30]: 29.1%
CC[C@@]1(O)C(=O)OCc2c1cc1n(c2=O)Cc2cc3c(CN(C)C)c(O)ccc3nc2-1 + Cc1ccccc1N=Nc1ccc(NC(=O)c2ccnn2C)c(C)c1	> 0.1	> 0.1	> 0.1	> 0.1	> 0.1	57.5	53.1	–	–	69.2	63.9	–	–	63.8	57.3	–	78.2	67.4	60.8	65.5	viability, T/C (second compound 0.1 µM, first compound 0.000316 µM): 81.8%; viability, T/C (second compound 0.1 µM, first compound 0.001 µM): 98.9%; viability, T/C [31]: 69.4%; viability, T/C [32]: 67.8%; viability, T/C (second compound 0.316 µM, first compound 0.000316 µM): 89.4%; viability, T/C (second compound 0.316 µM, first compound 0.001 µM): 92%; viability, T/C [33]: 79.9%; viability, T/C [34]: 65.8%; viability, T/C (second compound 1 µM, first compound 0.000316 µM): 77.9%; viability, T/C (second compound 1 µM, first compound 0.001 µM): 83.4%; viability, T/C [35]: 88%; viability, T/C [36]: 80%; viability, T/C (second compound 3.16 µM, first compound 0.000316 µM): 84.5%; viability, T/C (second compound 3.16 µM, first compound 0.001 µM): 86.4%; viability, T/C [37]: 88.7%; viability, T/C [38]: 68.2%; viability, T/C (second compound 10 µM, first compound 0.000316 µM): 86.7%; viability, T/C (second compound 10 µM, first compound 0.001 µM): 83%; viability, T/C [39]: 87.2%; viability, T/C [40]: 62.1%
COc1cc(C2c3cc4c(cc3C(OC3OC5COC(C)OC5C(O)C3O)C3COC(=O)C23)OCO4)cc(OC)c1O (stereo not given) + Cc1ccccc1N=Nc1ccc(NC(=O)c2ccnn2C)c(C)c1	0.266	0.267	0.419	1.58	1.02	75.4	58.1	44.1	50.4	54.1	53.9	51.9	46.1	88.8	67.5	49.6	66.8	80.4	62	61.7	viability, T/C [5]: 46.9%; viability, T/C [6]: 45.6%; viability, T/C [11]: 40.4%; viability, T/C [12]: 44.7%; viability, T/C [16]: 44.1%; viability, T/C [17]: 47.4%; viability, T/C [18]: 35.3%; viability, T/C [21]: 53.1%; viability, T/C [22]: 49.4%; viability, T/C [23]: 51.2%; viability, T/C [24]: 34%; viability, T/C [27]: 54%; viability, T/C [28]: 50.2%; viability, T/C [29]: 43.8%; viability, T/C [30]: 37.2%
COc1cccc2c1C(=O)c1c(O)c3c(c(O)c1C2=O)CC(O)(C(=O)CO)CC3OC1CC(N)C(O)C(C)O1 (stereo not given) + Cc1ccccc1N=Nc1ccc(NC(=O)c2ccnn2C)c(C)c1	< 0.0316	< 0.0316	0.152	0.115	0.128	39.7	52.7	32.5	3	52.6	45.9	34.7	2.92	56.4	58.8	36.6	54.6	49.7	57.6	50.4	viability, T/C [5]: 3.18%; viability, T/C [6]: 2.71%; viability, T/C [11]: 2.63%; viability, T/C [12]: 3.51%; viability, T/C [16]: 3.45%; viability, T/C [17]: 3.18%; viability, T/C [18]: 4.18%; viability, T/C [21]: 34.9%; viability, T/C [22]: 2.56%; viability, T/C [23]: 3.52%; viability, T/C [24]: 3.41%; viability, T/C [27]: 35.4%; viability, T/C [28]: 1.26%; viability, T/C [29]: 3.22%; viability, T/C [30]: 3.53%
Nc1ncn(C2CC(O)C(CO)O2)c(=O)n1 (stereo not given) + Cc1ccccc1N=Nc1ccc(NC(=O)c2ccnn2C)c(C)c1	> 1	> 1	> 1	> 1	> 1	64.3	60.1	63	49.4	69	76.1	72	59.6	72.7	62.9	75.4	79.9	63.7	66.1	71.5	viability, T/C [31]: 81.5%; viability, T/C [32]: 86.8%; viability, T/C [33]: 82.2%; viability, T/C [34]: 66.9%; viability, T/C [35]: 79.8%; viability, T/C [36]: 71.3%; viability, T/C [16]: 60.2%; viability, T/C [37]: 72.7%; viability, T/C [38]: 83.2%; viability, T/C [21]: 64.1%; viability, T/C [22]: 59%; viability, T/C [39]: 76.1%; viability, T/C [40]: 65.5%; viability, T/C [27]: 65%; viability, T/C [28]: 69.9%
